Measured values: patent US11198869B2, “Angelman syndrome antisense treatment” (The Texas A&M University System, priority 2017, dated 2021)

Test system: UBE3A-AS
Assay: UBE3A-AS steady state RNA dose response in Angelman syndrome iPSC-derived neurons
Format: cell-based, human
Settings: for IC50: six days following treatment, 10-point dose curve, read-out: potency (IC50), UBE3A-AS
Description: The steady state RNA levels of target transcripts were measured using TaqMan quantitative reverse-transcription PCR (qRT-PCR) assays. Total reaction volume was 10 uL, including 2 μl of cDNA, 1× Gene Expression Master mix (4369016, Thermo Fisher Scientific, Waltham, Mass.), and 1× TaqMan primer assay (Thermo Fisher Scientific). Cycling conditions were 2 minutes at 50° C., 10 minutes at 95° C., and 40 cycles of 15 seconds at 95° C. and 1 minute at 60° C., with readings taken at the 60° C. step of every cycle. Reactions were run on a BIO-RAD T1000 CFX96 thermocycler (Bio-Rad Laboratories, Hercules Calif.), with internal control (PPIA, Hs99999904_m1, Thermo Fisher Scientific) and target [UBE3A-AS, Hs01372957_m1; SNORD116-11, Hs04275268_gH; SNORD115, Hs04275288_gH; IPW, Hs03455409_s1; SNORD109A/B, AP47WVR (Thermo Fisher Scientific); UBE3A: forward […] (SEQ ID NO:500); reverse: […] (SEQ ID NO:501); and, probe: […] (SEQ ID NO:502)] reactions performed together. Data was retrieved and analyzed with the BIORAD CFX Maestro software (Bio-Rad Laboratories). Samples with internal control Cq values ≥30 were filtered. Quality of data was visually inspected to identify discrepancies between technical and/or plate replicates. Measurements for inferential statistics and descriptive statistics consist of ΔΔCq values (2^−ΔΔCq=2^−(Cq[target]−Cq[internal control])−(Cq[target]−Cq[internal control])).
The potencies of […] and ASO-4.4.PS.L were then examined in iPSC derived-neurons from an Angelman syndrome patient with a maternal derived deletion of the 15q11-q13 region. Induced pluripotent stem cells were differentiated into neurons and then treated with a 10-point ½ log dose response curve of ASO-6.1.PO-1.O and ASO-4.4.PS.L [1 nM, 3 nM, 10 nM, 30 nM, 100 nM, 300 nM, 1 μM, 3 μM, 10 μM, and 30 μM (n=3)]. Six days following treatment, the steady state RNA levels of UBE3A-AS were measured and dose response curves were fitted as described above (FIG. 9A). […] The Emax values were similar (30 μM: ASO-4.4.PS.L=0.01±0.0007; ASO-6.1.PO-1.O=0.05±0.004) but not considered equivalent due to the confidence intervals [ASO-6.1.PO-1.O/ASO-4.4.PS.L Emax ratio: =−9.1 (Lower confidence limit=−224; Upper confidence limit=205)].
Angelman syndrome induced pluripotent stem cells derived neurons Angelman syndrome iPS cells (AG1-0 iPSCs) (ECN001, Kerafast, Boston, Mass.) were co-cultured on irradiated murine embryonic fibroblasts in human embryonic stem cell medium [DMEM/F12 (11330-057, Gibco Biosciences, Dublin, Ireland), 20% Knockout Serum Replacement (10828-028, Thermo Fisher Scientific), 1× Non-essential amino acids, 2 mM L-glutamine, […] 2-Mercaptoethanol, and 4 μg/mL basic Fibroblast Growth Factor]. For the first passage, AG1-0 cells were passaged according to the product manual for PluriSTEM Human ES/iPS Medium (SCM130, Millipore Sigma, Burlington, Mass.), which is feeder-free and utilizes Dispase II (SCM133, Millipore Sigma) to dissociate cells. Matrigel™ hESC-qualified Matrix (354277, Corning BD Biosciences, Corning, N.Y.) was used as an extracellular matrix. At the second passage, the matrix was switched to vitronectin (CC130, Millipore Sigma). During subsequent passages, areas of differentiation were manually removed until differentiated cells represented approximately <5% of the colonies. After four subsequent passages, AG1-0 cells were differentiated using the Millipore ES/iPS Neurogenesis Kit (SCR603, SCM110, and SCM111) but lacking vitronectin as an extracellular matrix. The initial passage was performed with EZ-LiFT (SCM139, Millipore Sigma) to obtain high quality iPS cells. Neural progenitor cells were frozen at stage zero (P0) and subsequently thawed for differentiation. Differentiation was performed on sterile culture plates coated with poly-D-lysine (10 μg/mL) and laminin [10 μg/mL (23017-015, Gibco) in differentiation medium (SCM111) for 10 days of differentiation. […]

| ASO-6.1.PO-1.O/ASO-4.4.PS.L IC50 ratio (equivalence test) | Substance | fold more potent than ASO-6.1.PO-1.O | Emax, normalized UBE3A-AS RNA level at 30 μM | IC50 | ASO-6.1.PO-1.O/ASO-4.4.PS.L Emax ratio (equivalence test) |
| --- | --- | --- | --- | --- | --- |
| – | A^L*G^L*A^L*a*t*g*g*c*a*c*a*t*c*t*5mC^L*T^L*T^L*G^L (NNNATGGCACATCTNNNN; LNA gapmer, PS, 5-methylcytosine, chemistry not fully specified) [ASO-4.4.PS.L] | approximately 2.7 fold | 0.01±0.0007 | 0.437 µM | – |
| 0.96 | C^O*U^O*G^O*G^O-t*g*t*c*a*a*c*a*a*g-C^O*C^O*A^O*A^o [ASO-6.1.PO-1.O] | – | 0.05±0.004 | 1.22 µM | −9.1 |
